In the NIST ThermoML archive (doi:10.1016/j.fluid.2018.10.006):
Where “and” joins values, the source holds several entries; their conditions need not be identical. Equal values may be shown once.

Conditions: Fluid (supercritical or subcritical phases), Coaxial cylinder method

CCCCCC [hexane]
thermal conductivity
Conditions | 508.17 K | 508.92 K
900 kPa | – | 0.03769 W/m/K
1100 kPa | – | 0.03855 W/m/K
1234 kPa | – | 0.03889 W/m/K
1401 kPa | – | 0.03933 W/m/K
1510 kPa | – | 0.03959 W/m/K
1603 kPa | – | 0.03996 W/m/K
1710 kPa | – | 0.04032 W/m/K
1806 kPa | – | 0.0407 W/m/K
1908 kPa | – | 0.04118 W/m/K
2006 kPa | – | 0.04167 W/m/K
2111 kPa | – | 0.04248 W/m/K
2210 kPa | – | 0.043 W/m/K
2300 kPa | – | 0.04353 W/m/K
2409 kPa | – | 0.04463 W/m/K
2509 kPa | – | 0.04579 W/m/K
2600 kPa | – | 0.04701 W/m/K
2650 kPa | – | 0.04777 W/m/K
2726 kPa | – | 0.0491 W/m/K
2744 kPa | – | 0.04937 W/m/K
2752 kPa | – | 0.04965 W/m/K
2763 kPa | – | 0.04993 W/m/K
2847 kPa | – | 0.05261 W/m/K
2898 kPa | – | 0.05429 W/m/K
2902 kPa | – | 0.05464 W/m/K
2927 kPa | – | 0.05568 W/m/K
2949 kPa | 0.0646 W/m/K | –
2953 kPa | 0.06509 W/m/K | –
2955 kPa | – | 0.05752 W/m/K
2956 kPa | 0.06509 W/m/K | –
2963 kPa | 0.06603 W/m/K | –
2966 kPa | 0.06628 W/m/K | –
2968 kPa | – | 0.05888 W/m/K
2970 kPa | 0.06681 W/m/K | –
2974 kPa | 0.06734 W/m/K | –
2975 kPa | – | 0.05948 W/m/K
2979 kPa | 0.06826 W/m/K | –
2982 kPa | 0.0687 W/m/K | –
2985 kPa | – | 0.06031 W/m/K
2988 kPa | – | 0.06094 W/m/K
2990 kPa | 0.07041 W/m/K | –
2991 kPa | 0.0707 W/m/K | –
2992 kPa | – | 0.06115 W/m/K
2995 kPa | 0.07129 W/m/K | –
2998 kPa | 0.07219 W/m/K | –
2999 kPa | – | 0.06202 W/m/K
3002 kPa | 0.07324 W/m/K | –
3004 kPa | – | 0.06246 W/m/K
3007 kPa | 0.07436 W/m/K | –
3009 kPa | 0.07488 W/m/K | –
3011 kPa | – | 0.06336 W/m/K
3013 kPa | 0.0758 W/m/K | –
3015 kPa | 0.07648 W/m/K | 0.06429 W/m/K
3017 kPa | 0.07703 W/m/K | –
3019 kPa | – | 0.06477 W/m/K
3021 kPa | 0.07822 W/m/K | –
3022 kPa | 0.07848 W/m/K | –
3024 kPa | 0.0792 W/m/K | –
3025 kPa | – | 0.06574 W/m/K
3026 kPa | 0.07994 W/m/K | –
3028 kPa | – | 0.06624 W/m/K
3029 kPa | 0.08069 W/m/K | –
3031 kPa | 0.08185 W/m/K | –
3033 kPa | 0.08287 W/m/K | 0.06751 W/m/K
3034 kPa | 0.08344 W/m/K | –
3035 kPa | – | 0.06804 W/m/K
3036 kPa | 0.08467 W/m/K | –
3037 kPa | 0.08467 W/m/K | –
3038 kPa | 0.08604 W/m/K | –
3039 kPa | 0.08566 W/m/K | 0.06857 W/m/K
3040 kPa | 0.08735 W/m/K | –
3041 kPa | 0.08647 W/m/K and 0.08824 W/m/K | –
3042 kPa | 0.09103 W/m/K | 0.06938 W/m/K
3043 kPa | 0.09201 W/m/K | –
3044 kPa | – | 0.06994 W/m/K
3045 kPa | 0.09401 W/m/K | –
3046 kPa | 0.09504 W/m/K | –
3047 kPa | 0.0961 W/m/K | –
3048 kPa | 0.09828 W/m/K | 0.07107 W/m/K
3049 kPa | 0.09941 W/m/K | –
3050 kPa | 0.1017 W/m/K | 0.0715 W/m/K
3051 kPa | 0.1048 W/m/K | –
3052 kPa | 0.1081 W/m/K | 0.07223 W/m/K
3053 kPa | 0.1119 W/m/K | –
3054 kPa | 0.1168 W/m/K | –
3055 kPa | 0.1226 W/m/K | 0.07344 W/m/K
3056 kPa | 0.1319 W/m/K | 0.07375 W/m/K
3057 kPa | 0.1487 W/m/K | –
3058 kPa | 0.1625 W/m/K | –
3059 kPa | 0.1438 W/m/K | 0.07469 W/m/K
3060 kPa | 0.1319 W/m/K | 0.07532 W/m/K
3061 kPa | 0.1231 W/m/K | –
3062 kPa | 0.1168 W/m/K | –
3063 kPa | 0.1123 W/m/K | 0.0763 W/m/K
3064 kPa | 0.1088 W/m/K | –
3065 kPa | 0.106 W/m/K | 0.07747 W/m/K
3066 kPa | 0.1039 W/m/K | –
3067 kPa | 0.1024 W/m/K | 0.07868 W/m/K
3068 kPa | 0.1006 W/m/K | 0.07903 W/m/K
3069 kPa | 0.09945 W/m/K | 0.0801 W/m/K
3070 kPa | 0.09832 W/m/K | 0.08047 W/m/K
3071 kPa | 0.09743 W/m/K | 0.08084 W/m/K
3073 kPa | 0.09613 W/m/K | 0.08254 W/m/K
3074 kPa | 0.09508 W/m/K | 0.08353 W/m/K
3075 kPa | 0.09456 W/m/K | 0.08412 W/m/K
3076 kPa | 0.09404 W/m/K | 0.08532 W/m/K
3077 kPa | 0.09323 W/m/K | 0.08593 W/m/K
3078 kPa | 0.09287 W/m/K | 0.08697 W/m/K
3079 kPa | 0.09237 W/m/K | 0.08803 W/m/K
3080 kPa | 0.09171 W/m/K | 0.08934 W/m/K
3081 kPa | 0.09127 W/m/K | 0.09069 W/m/K
3082 kPa | 0.09079 W/m/K | 0.09234 W/m/K
3083 kPa | 0.09032 W/m/K | 0.09384 W/m/K
3084 kPa | 0.08985 W/m/K | 0.09568 W/m/K
3085 kPa | 0.08955 W/m/K | 0.0977 W/m/K
3086 kPa | 0.0889 W/m/K | 0.1001 W/m/K
3087 kPa | 0.08845 W/m/K | 0.103 W/m/K
3088 kPa | 0.088 W/m/K | –
3089 kPa | 0.08755 W/m/K | –
3090 kPa | 0.08755 W/m/K | –
3091 kPa | 0.08711 W/m/K | –
3092 kPa | 0.08667 W/m/K | –
3094 kPa | 0.08581 W/m/K | –
3095 kPa | 0.08539 W/m/K | –
3100 kPa | 0.08334 W/m/K | –
3105 kPa | 0.08267 W/m/K | –
3108 kPa | 0.08217 W/m/K | –
3115 kPa | 0.08124 W/m/K | –
3120 kPa | 0.08025 W/m/K | –
3125 kPa | 0.08032 W/m/K | –
3130 kPa | 0.08032 W/m/K | –
3132 kPa | 0.08032 W/m/K | –
